Melting point and IC50 data for 6 compounds are collected here from patent US6465686B2, “Halogenated 2-amino-5,6 heptenoic acid derivatives useful as nitric oxide synthase inhibitors” (Pharmacia Corporation, priority 2000, dated 2002).

Where a name gives a salt, the structure may show the parent alone.

Series [1] addresses T1, Human inducible NOS (hiNOS) (Homo sapiens, UniProt P35228).
T1 construct: made in house; host or cells: Sf9 insect cells (baculovirus vector)
Nature of the series: Citrulline assay for nitric oxide synthase, hiNOS. The class given is biochemical. Particulars: recombinant enzyme, conversion of L-[2,3-3H]-arginine to citrulline, 30 μM L-arginine. The text has this:
(§1) Citrulline Assay for Nitric Oxide Synthase
(§2) Nitric oxide synthase (NOS) activity can be measured by monitoring the conversion of L-[2,3-^3H]-arginine to L-[2,3-^3H]-citrulline (Bredt and Snyder, Proc. Natl. Acad. Sci. U.S.A., 87, 682-685, 1990 and Moore et al, J. Med. Chem., 39, 669-672, 1996). Human inducible NOS (hiNOS), human endothelial constitutive NOS (hecNOS) and human neuronal constitutive NOS (hncNOS) are each cloned from RNA extracted from human tissue. The cDNA for human inducible NOS (hiNOS) is isolated from a λcDNA library made from RNA extracted from a colon sample from a patient with ulcerative colitis. The cDNA for human endothelial constitutive NOS (hecNOS) is isolated from a λcDNA library made from RNA extracted from human umbilical vein endothelial cells (HUVEC) and the cDNA for human neuronal constitutive NOS (hncNOS) is isolated from a λcDNA library made from RNA extracted from human cerebellum obtained from a cadaver. The recombinant enzymes are expressed in Sf9 insect cells using a baculovirus vector (Rodi et al, in The Biology of Nitric Oxide, Pt. 4: Enzymology, Biochemistry and Immunology: Moncada, S., Feelisch, M., Busse, R., Higgs, E., Eds.; Portland Press Ltd.: London, 1995; pp 447-450). Enzyme activity is isolated from soluble cell extracts and partially purified by DEAE-Sepharose chromatography. To measure NOS activity, 10 μL of enzyme is added to 40 μL of 50 mM Tris (pH 7.6) in the presence or absence of test compounds and the reaction initiated by the addition of 50 μL of a reaction mixture containing 50 mM Tris (pH 7.6), 2.0 mg/mL bovine serum albumin, 2.0 mM DTT, 4.0 mM CaCl2, 20 μM FAD, 100 μM tetrahydrobiopterin, 0.4 mM NADPH and 60 μM L-arginine containing 0.9 μCi of L-[2,3-^3H]-arginine. The final concentration of L-arginine in the assay is 30 μM. For hecNOS or hncNOS, calmodulin is included at a final concentration of […]. Following incubation at 37° C. for 15 minutes, the reaction is terminated by addition of 400 μL of a suspension (1 part resin, 3 parts buffer) of Dowex 50W X-8 cation exchange resin in a stop buffer containing 10 mM EGTA, 100 mM HEPES, pH 5.5 and 1 mM L-citrulline. After mixing the resin is allowed to settle and L-[2,3-^3H]-Citrulline formation is determined by counting aliquots of the supernatant with a liquid scintillation counter. Results are reported in Table I as the IC50 values of compounds for hiNOS, hecNOS and hncNOS.

Series [2] has as its target T2, human neuronal constitutive NOS (hncNOS) (Homo sapiens, UniProt P29475).
T2 construct: made in house; host or cells: Sf9 insect cells (baculovirus vector)
Nature of the series: Citrulline assay for nitric oxide synthase, hncNOS. The class given is biochemical. The note with it: recombinant enzyme, conversion of L-[2,3-3H]-arginine to citrulline, 30 μM L-arginine, calmodulin included.
Description: as §1, §2

Series [3] has as its target T3, human endothelial constitutive NOS (hecNOS) (Homo sapiens, UniProt P29474).
T3 construct: made in house; host or cells: Sf9 insect cells (baculovirus vector)
Nature of the series: Citrulline assay for nitric oxide synthase, hecNOS. Format: biochemical. Particulars: recombinant enzyme, conversion of L-[2,3-3H]-arginine to citrulline, 30 μM L-arginine, calmodulin included.
Description: as §1, §2

The compound `CC(=NO)NC/C(F)=C\CC[C@H](N)C(=O)O` [Example 10, (2S,5E)-2-amino-6-fluoro-7-[(1-hydroximinoethyl)amino]-5-heptenoic acid] had a melting point of 198 to 200 °C.

Take `CC(=N)NC/C(F)=C\CC[C@H](N)C(=O)O` [Example 1, (2S,5E)-2-amino-6-fluoro-7-[(1-iminoethyl)amino]-5-heptenoic acid, dihydrochloride, monohydrate]: the half-maximal inhibitory concentration (IC50) in series [1] was 0.36 µM; in series [2] it was 3.6 µM; in series [3], 68 µM.

For `CC(=N)NCC(F)=CCC[C@H](N)C(=O)O` (mixture of isomers) [Example 2, (2S,5E/Z)-2-amino-6-fluoro-7-[(1-iminoethyl)amino]-5-heptenoic acid, dihydrochloride], the half-maximal inhibitory concentration (IC50) in series [1] turned out to be 2.2 µM; in series [2] it was 21 µM; in series [3], 195 µM.

Consider `CC(=N)NC/C(F)=C/CC[C@H](N)C(=O)O` [Example 3, (2S,5Z)-2-amino-6-fluoro-7-[(1-iminoethyl)amino]-5-heptenoic acid, dihydrochloride], for which the results for the concentration for half-maximal inhibition (IC50) in series [1], in series [2] and in series [3] were 12 µM, 105 µM and 303 µM, respectively.

`CC(=N)NC/C(F)=C/CC[C@H](N)C(=O)O` [Example 4, (2S,5Z)-2-amino-6-fluoro-7-[(1-iminoethyl)amino]-5-heptenoic acid, trihydrochloride, dihydrate]: the IC50 was determined as 8.6 µM in series [1], 65 µM in series [2] and 112 µM in series [3].

With `CC(=N)NC/C(F)=C\CC[C@@H](N)C(=O)O` [Example 5, (2R,5E)-2-amino-6-fluoro-7-[(1-iminoethyl)amino]-5-heptenoic acid, dihydrochloride, monohydrate], the IC50 in series [1] was less than 5 µM; in series [2], 29 µM; in series [3], 279 µM.

Usually melting point stands for the temperature of the solid-liquid transition. What is called IC50 is the concentration at which inhibition is half-maximal.
